Consider 19 compounds from article PMC10048804, “Coumarin-Based Compounds as Inhibitors of Tyrosinase/Tyrosine Hydroxylase: Synthesis, Kinetic Studies, and In Silico Approaches” (International Journal of Molecular Sciences, 2023).

Data set [1] concerns the target mushroom tyrosinase. The conditions noted are these: ref [39],[40],[41]; cited from earlier work.
The subject of data set [2] is cellular tyrosinase in B16F10 cells. The conditions noted are these: ref [39],[40],[41]; cited from earlier work.
Data set [3] has as its system B16F10 cells. The conditions noted are these: ref [39],[40],[41]; cited from earlier work.
For data set [4], the target named is tyrosinase. The conditions noted are these: cited from earlier work.
The subject of data set [5] is intracellular tyrosinase. On the set-up: method as in PMID 35063859. The conditions noted are these: ref [45], cited from earlier work.
The subject of data set [6] is production of melanin. Also on record: method as in PMID 35063859. The conditions noted are these: ref [45]; cited from earlier work.
In data set [7] the target is T1, mushroom tyrosinase (Agaricus bisporus, UniProt C7FF04). Nature of the data set: Kinetic analysis of the inhibition of tyrosinase (Lineweaver-Burk plots). It is filed as biochemical. Also on record: purchased Sigma-Aldrich. The following applies: L-DOPA substrate. Here is the method: The mechanism for tyrosinase inhibition of the tested compounds was determined from Lineweaver–Burk double reciprocal plots. The plot provides a useful graphical method for analysis of the Michaelis–Menten equations used to determine the Km values for possible competitive, uncompetitive, non-competitive, and mixed mechanisms of inhibition. All Lineweaver–Burk plots can be found in the Supplementary Information. As can be easily noticed, the majority of tested compounds are characterized by the mixed mode of inhibition (Table 2). It is a type of enzyme inhibition in which the inhibitor may bind to the enzyme whether or not the enzyme has already bound to the substrate.
A series of experiments was performed to determine the inhibition kinetics of the tested compounds following the already reported method. The inhibitor concentrations for the tested compounds were 0.05 and 0.1 mM. The substrate L-DOPA concentration was between 0.1 and 0.25 mM in all kinetic studies, but for the FN-06 and FN-27 compounds, concentrations between 0.15 and 0.3 mM were used. Maximal initial velocity was determined from the initial linear portion of absorbance up to ten minutes after the addition of the enzyme. The inhibition type of the enzyme, Michaelis constant (Km), and maximal velocity (Vmax) were determined using Lineweaver–Burk plots of the inverse of velocities (1/V) versus the inverse of substrate concentration 1/[L-DOPA] mM^−1.
Target sequence in this assay (C7FF04 1-392 limits assumed): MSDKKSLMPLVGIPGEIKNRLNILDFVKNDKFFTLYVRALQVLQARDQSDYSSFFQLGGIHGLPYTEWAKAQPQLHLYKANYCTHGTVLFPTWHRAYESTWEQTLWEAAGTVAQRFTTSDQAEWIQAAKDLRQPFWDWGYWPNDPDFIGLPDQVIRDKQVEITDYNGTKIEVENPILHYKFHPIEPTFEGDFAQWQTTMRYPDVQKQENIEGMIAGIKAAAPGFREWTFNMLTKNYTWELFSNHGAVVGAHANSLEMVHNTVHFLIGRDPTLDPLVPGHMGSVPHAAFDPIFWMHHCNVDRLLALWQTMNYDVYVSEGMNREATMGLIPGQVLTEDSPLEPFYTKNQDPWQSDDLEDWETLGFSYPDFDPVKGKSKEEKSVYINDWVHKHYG

For data set [8], the target named is T2, tyrosinase (Agaricus bisporus, UniProt C7FF04).
T2 construct: purchased Sigma-Aldrich
T2 sequence (C7FF04 1-392 limits assumed): as above
Nature of the data set: UV-Vis spectra of L-DOPA oxidation by tyrosinase in absence and presence of inhibitor. It is filed as biochemical, mushroom. The following applies: after 30 min, versus L-DOPA with tyrosinase. Here is the method:
The remaining compound FN-40 is a competitive inhibitor, which binds to the enzyme at its active site, preventing the binding of the substrate to the enzyme. […] To observe the effect of the oxidation of L-DOPA by tyrosinase in the absence and presence of the tested compounds, the UV-Vis spectra were determined. During L-DOPA oxidation by tyrosinase, a characteristic signal at 475 nm is observed in the UV-Vis spectrum, corresponding to the formation of dopachrome.

Data set [9] addresses T1, mushroom tyrosinase. Nature of the data set: Mushroom tyrosinase inhibition assay (L-DOPA substrate, dopachrome at 475 nm). It is filed as biochemical. Here is the method: All compounds were tested for their inhibitory effects on mushroom tyrosinase using L-DOPA as substrate. In general, the results were compared with standard tyrosinase inhibitors, such as kojic acid and ascorbic acid. […]. The mushroom tyrosinase (Sigma-Aldrich) inhibition was performed following previously reported methods. All assays were carried out with solutions containing phosphate buffer (50 mM, pH 6.8), L-DOPA (0.17 mM), EDTA (0.022 mM), tyrosinase (50–100 units), and varying concentrations of compounds, and were performed in triplicate at room temperature. The inhibitor solutions were prepared in DMSO with an initial concentration of 1 mM. Different aliquots were added to the solution containing buffer, L-DOPA, and EDTA, the enzyme being added in the end. The formation of dopachrome was determined by monitoring the absorbance at 475 nm with a T60U spectrophotometer (PG Instruments) equipped with quartz cells of 1 cm path length. Kojic acid and ascorbic acid were used as reference inhibitors with an initial concentration of 1 mM. The IC50 values were calculated from the equation generated with an exponential fit of the experimental data. […]
Target sequence in this assay (C7FF04 2-392): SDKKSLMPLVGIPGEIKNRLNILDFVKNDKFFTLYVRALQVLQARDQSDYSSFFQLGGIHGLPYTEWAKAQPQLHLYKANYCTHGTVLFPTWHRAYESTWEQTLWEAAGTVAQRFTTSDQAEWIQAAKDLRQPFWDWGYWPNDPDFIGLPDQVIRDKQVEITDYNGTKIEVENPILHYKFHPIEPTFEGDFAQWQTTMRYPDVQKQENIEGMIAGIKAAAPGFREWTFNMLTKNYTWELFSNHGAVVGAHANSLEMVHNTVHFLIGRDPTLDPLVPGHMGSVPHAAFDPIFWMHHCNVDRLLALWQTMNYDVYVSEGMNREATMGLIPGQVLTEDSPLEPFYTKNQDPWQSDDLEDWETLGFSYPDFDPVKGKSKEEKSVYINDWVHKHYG

What is called IC50 is the point on the concentration scale where inhibition reaches its midpoint. The term melting point denotes the temperature of the solid-liquid transition.

Entries after “also recorded” stand apart in the source; their conditions may differ. Read-outs that look alike come from different tables or passages of the source.

On to `O=c1oc2cc(O)cc(O)c2cc1-c1cccs1` [Compound 1], for which, in [1], the IC50 is 0.15 ± 0.028 µM.

Consider `O=c1oc2cc(O)cc(O)c2cc1-c1cc(Br)cs1` [Compound 2], for which the half-maximal inhibitory concentration (IC50) in [1] is 0.38 ± 0.084 µM. In addition, the cellular tyrosinase activity result in data set [2] is given as “able to inhibit”. For the same compound, in data set [3], the melanin production entry is listed as “able to inhibit”.

Consider `O=c1oc2cc(O)cc(O)c2cc1-c1ccc(Br)cc1` [Compound 3], for which the IC50 in [1] is 1.05 ± 0.056 µM. In addition, the cellular tyrosinase activity entry in data set [2] is “able to inhibit”. For the same compound, the melanin production entry in data set [3] was “able to inhibit”.

For `COc1cc(C2CC(c3cc4ccccc4oc3=O)=NN2c2nc(-c3ccc(Br)cc3)cs2)ccc1OCc1ccccc1` (stereo not shown) [Compound 5], in data set [4] (ref [43]), the concentration for half-maximal inhibition (IC50) was 0.00458 ± 0.00022 µM.

Turning to `CC(C)=CCOc1c2occc2cc2ccc(=O)oc12` [Compound 6, marmelosin], the half-maximal inhibitory concentration (IC50) in data set [4] (ref [44]) is 20.3 ± 1.26 µM.

For the compound `CC(C)=CC(=O)O[C@H]1Cc2cc3ccc(=O)oc3cc2OC1(C)C` [Compound 7, decursin], the “%Tyrosine inh.” value in data set [5] (at 30 μM) is recorded as 59.8 ± 0.6%. The “intracellular activity of tyrosinase” value in [5] was “decreases”. Further, the production of melanin entry in data set [6] was “reduces”.

On to `CC(=O)c1cc2ccc(O)cc2oc1=O` [FN-06, 3. -Acetyl-7-hydroxy-2H-chromen-2-one], for which the “Inhibitory Mechanism” value in data set [7] (compound at 0.1 mM) is reported as “mixed inhibitors”.

As for `COc1cccc2cc(C(C)=O)c(=O)oc12` [FN-07, 3. -Acetyl-8-methoxy-2H-chromen-2-one], the “Inhibitory Mechanism” value in data set [7] (compound at 0.1 mM) is listed as “Mixed”.

As for `CN(C)c1ccc(/C=C/C(=O)c2cc3ccccc3oc2=O)cc1` [FN-10, 3. -((E)-3-(4-(Dimethylamino)phenyl)acryloyl)-2H-chromen-2-one], the melting point fell in the range of 111 to 112 °C. In addition, the “Inhibitory Mechanism” value in [7] (compound at 0.05 mM) is “mixed inhibitors”.

`C/C(=N\NC(N)=O)c1cc2ccc(O)cc2oc1=O` [FN-17, (1E)-1-(1-(7-Hydroxy-2-oxo-2H-chromen-3-yl)ethylidene)semicarbazide] gave a melting point of 226 to 229 °C. In data set [7] (compound at 0.1 mM), the “Inhibitory Mechanism” value is reported as “Mixed”.

Regarding `C/C(=N\NC(N)=S)c1cc2ccc(O)cc2oc1=O` [FN-19, (1E)-1-(1-(7-Hydroxy-2-oxo-2H-chromen-3-yl)ethylidene)thiosemicarbazide], in data set [8], the “signal intensity at 475 nm (dopachrome formation)” value is “significant reduction; also recorded: significantly reduce”. In addition, the “Inhibitory Mechanism” value in data set [7] (compound at 0.1 mM) is reported as “mixed inhibitor; also recorded: mixed mode”.

For `COc1cccc2cc(/C(C)=N/NC(N)=O)c(=O)oc12` [FN-25, (1E)-1-(1-(8-Methoxy-2-oxo-2H-chromen-3-yl)ethylidene)semicarbazide], the melting point lay within 240 to 242 °C. In data set [7] (compound at 0.1 mM), the “Inhibitory Mechanism” value was “Mixed”.

With `COc1cccc2cc(/C(C)=N/NC(N)=S)c(=O)oc12` [FN-27, (1E)-1-(1-(8-Methoxy-2-oxo-2H-chromen-3-yl)ethylidene)thiosemicarbazide], the “Inhibitory Mechanism” value in [7] (compound at 0.1 mM) is on record as “mixed inhibitors”.

`COc1cccc2cc(/C(C)=N/NC(=O)c3ccncc3)c(=O)oc12` [FN-29, (13E)-N’-(1-(8-Methoxy-2-oxo-2H-chromen-3-yl)ethylidene)isonicotinohydrazide]: the melting point is 202 to 206 °C. For the same compound, the “solubility in the tyrosinase assay” value in data set [9] (in words) was “not soluble”. Besides, the “Inhibitory Mechanism” value in [7] (compound at 0.1 mM) is on record as “Mixed”.

In the case of `CC(=O)c1cc2cc(Br)ccc2oc1=O` [FN-40], in [7] (compound at 0.1 mM), the “Inhibitory Mechanism” value is on record as “Competitive”.

`CC(=O)c1cc2cc([N+](=O)[O-])ccc2oc1=O` [MP-03, 3. -Acetyl-6-nitro-2H-chromen-2-one] yielded a melting point of 201 to 203 °C. Besides, the “Inhibitory Mechanism” value in [7] (compound at 0.1 mM) is “Uncompetitive”.

Compound `CC(=O)c1cc2ccc(C)cc2oc1=O` [MP-04, 3. -Acetyl-7-methyl-2H-chromen-2-one] yielded a melting point of 157 to 159 °C. Also, the “Inhibitory Mechanism” value in [7] (compound at 0.1 mM) was “Noncompetitive”.

Regarding `CC(=O)c1cc2ccccc2oc1=O` [MP-05, 3. -Acetyl-2H-chromen-2-one], in data set [7] (compound at 0.1 mM), the “Inhibitory Mechanism” value is on record as “Mixed”.

For the compound “(E)-N’-(4-(dimethylamino)benzylidene)-2-methylene-2H-chromene-3-carbohydrazide [FN-11]”, the IC50 in data set [9] (mushroom tyrosinase, L-DOPA 0.17 mM as substrate, pH 6.8, triplicate, room temperature) is 159 µM. For the same compound, the “Inhibitory Mechanism” value in data set [7] (compound at 0.1 mM) is on record as “Mixed”.
